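Five compound concentrations were applied to cells in 96-well plates for 48 hours; endpoints were derived by simple linear interpolation of the resulting dose-response curve. The concentration for 50% growth inhibition is given as GI50. The concentration for full growth arrest is given as TGI.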
How the values were obtained:
Experiment in all cases: NCI anticancer screen, dose series, 48 h
[1] = test system: 786-0 renal
[2] = test system: A498 renal
[3] = test system: A549 NSCLC
[4] = test system: ACHN renal
[5] = test system: BT-549 breast
[6] = test system: CAKI-1 renal
[7] = test system: CCRF-CEM leukemia
[8] = test system: COLO 205 colon
[9] = test system: DU-145 prostate
[10] = test system: EKVX NSCLC
[11] = test system: HCC-2998 colon
[12] = test system: HCT-116 colon
[13] = test system: HCT-15 colon
[14] = test system: HL-60(TB) leukemia
[15] = test system: HOP-62 NSCLC
[16] = test system: HOP-92 NSCLC
[17] = test system: HS 578T breast
[18] = test system: HT29 colon
[19] = test system: IGROV1 ovarian
[20] = test system: K-562 leukemia
[21] = test system: KM12 colon
[22] = test system: LOX IMVI melanoma
[23] = test system: M14 melanoma
[24] = test system: MALME-3M melanoma
[25] = test system: MCF7 breast
[26] = test system: MDA-MB-231 breast
[27] = test system: MDA-MB-435
[28] = test system: MOLT-4 leukemia
[29] = test system: NCI-H226 lung
[30] = test system: NCI-H23 lung
[31] = test system: NCI-H460 lung
[32] = test system: NCI-H522 lung
[33] = test system: NCI/ADR-RES ovarian
[34] = test system: OVCAR-3 ovarian
[35] = test system: OVCAR-4 ovarian
[36] = test system: OVCAR-5 ovarian
[37] = test system: OVCAR-8 ovarian
[38] = test system: PC-3 prostate
[39] = test system: RPMI-8226 leukemia
[40] = test system: RXF 393 renal
[41] = test system: SF-268 CNS
[42] = test system: SF-295 CNS
[43] = test system: SF-539 CNS
[44] = test system: SK-MEL-2 melanoma
[45] = test system: SK-MEL-28 melanoma
[46] = test system: SK-MEL-5 melanoma
[47] = test system: SK-OV-3 ovarian
[48] = test system: SN12C renal
[49] = test system: SNB-19 CNS
[50] = test system: SNB-75 CNS
[51] = test system: SR leukemia
[52] = test system: SW-620 colon
[53] = test system: T-47D breast
[54] = test system: TK-10 renal
[55] = test system: U251 CNS
[56] = test system: UACC-257 melanoma
[57] = test system: UACC-62 melanoma
[58] = test system: UO-31 renal

For `COc1ccc(-n2cc(-c3cc(OC)c(OC)c(OC)c3)c(C(=O)C(F)(F)F)c2C)cc1`, the GI50 [1] was > 100 µM, the TGI [1] was > 100 µM and the GI50 [2] was 6.4 µM. The TGI [2] was > 100 µM, the GI50 [3] was 28 µM and the TGI [3] was > 100 µM. The GI50 [4] was 54.6 µM, the TGI [4] was > 100 µM and the GI50 [5] was 56.2 µM. The TGI [5] was > 100 µM, the GI50 [6] was 73.8 µM and the TGI [6] was > 100 µM. For the same compound, the GI50 [7] was 16.1 µM, the TGI [7] was > 100 µM and the GI50 [8] was 65.2 µM. For the same compound, the TGI [8] was > 100 µM, the GI50 [9] was > 100 µM and the TGI [9] was > 100 µM. For the same compound, the GI50 [10] was 13.9 µM, the TGI [10] was > 100 µM and the GI50 [11] was > 100 µM. The TGI [11] was > 100 µM, the GI50 [12] was 6.93 µM and the TGI [12] was > 100 µM. The GI50 [13] was 59.4 µM, the TGI [13] was > 100 µM and the GI50 [14] was 37.3 µM. For the same compound, the TGI [14] was > 100 µM, the GI50 [15] was > 100 µM and the TGI [15] was > 100 µM. The GI50 [16] was 2.39 µM, the TGI [16] was 21.5 µM and the GI50 [17] was 53.1 µM. The TGI [17] was > 100 µM, the GI50 [18] was 9.75 µM and the TGI [18] was > 100 µM. The GI50 [19] was 85.7 µM, the TGI [19] was > 100 µM and the GI50 [20] was 22 µM. For the same compound, the TGI [20] was > 100 µM, the GI50 [21] was 32.6 µM and the TGI [21] was > 100 µM. For the same compound, the GI50 [22] was 47.4 µM, the TGI [22] was > 100 µM and the GI50 [23] was > 100 µM. The TGI [23] was > 100 µM, the GI50 [24] was > 100 µM and the TGI [24] was > 100 µM. For the same compound, the GI50 [25] was 14.2 µM, the TGI [25] was > 100 µM and the GI50 [26] was > 100 µM. For the same compound, the TGI [26] was > 100 µM, the GI50 [27] was 43.3 µM and the TGI [27] was > 100 µM. For the same compound, the GI50 [28] was 6.02 µM, the TGI [28] was > 100 µM and the GI50 [29] was > 100 µM. For the same compound, the TGI [29] was > 100 µM, the GI50 [30] was 8.53 µM and the TGI [30] was > 100 µM. For the same compound, the GI50 [31] was 29.4 µM, the TGI [31] was > 100 µM and the GI50 [32] was 20 µM. The TGI [32] was > 100 µM, the GI50 [33] was 25.8 µM and the TGI [33] was > 100 µM. For the same compound, the GI50 [34] was 24.9 µM, the TGI [34] was > 100 µM and the GI50 [35] was 9.28 µM. The TGI [35] was > 100 µM, the GI50 [36] was > 100 µM and the TGI [36] was > 100 µM. For the same compound, the GI50 [37] was > 100 µM, the TGI [37] was > 100 µM and the GI50 [38] was 9.01 µM. The TGI [38] was > 100 µM, the GI50 [39] was 4.53 µM and the TGI [39] was > 100 µM. The GI50 [40] was > 100 µM, the TGI [40] was > 100 µM and the GI50 [41] was 99.5 µM. For the same compound, the TGI [41] was > 100 µM, the GI50 [42] was > 100 µM and the TGI [42] was > 100 µM. For the same compound, the GI50 [43] was > 100 µM, the TGI [43] was > 100 µM and the GI50 [44] was > 100 µM. For the same compound, the TGI [44] was > 100 µM, the GI50 [45] was > 100 µM and the TGI [45] was > 100 µM. For the same compound, the GI50 [46] was 7.33 µM, the TGI [46] was > 100 µM and the GI50 [47] was > 100 µM. For the same compound, the TGI [47] was > 100 µM, the GI50 [48] was 28.6 µM and the TGI [48] was > 100 µM. For the same compound, the GI50 [49] was > 100 µM, the TGI [49] was > 100 µM and the GI50 [50] was 13.8 µM. The TGI [50] was > 100 µM, the GI50 [51] was 4.54 µM and the TGI [51] was > 100 µM. The GI50 [52] was > 100 µM, the TGI [52] was > 100 µM and the GI50 [53] was 3.81 µM. The TGI [53] was > 100 µM, the GI50 [54] was 35.7 µM and the TGI [54] was > 100 µM. For the same compound, the GI50 [55] was 63.4 µM, the TGI [55] was > 100 µM and the GI50 [56] was 15.7 µM. The TGI [56] was > 100 µM, the GI50 [57] was 15.6 µM and the TGI [57] was > 100 µM. The GI50 [58] was 4.6 µM and the TGI [58] was > 100 µM.
